Like-named read-outs stand apart in the source and are kept apart here.
What was measured:
[1] = tested on: hyperlipidémie provoquée par l'administration de TRITON®; assay: Triton test: hyperlipidemia induced by i.v. TRITON W.R. in fasted rats; assay type: in vivo, rats WISTAR mâles; conditions: for inhibition in vivo at 250 mg/kg: Rattus norvegicus, po, blood assayed 6 h and/or 24 h later
Text: Dans une première série d'expériences, des produits ont été testés sur une hyperlipidémie provoquée par l'administration de TRITON® selon le protocole suivant.
Les essais ont été réalisés sur des groupes de cinq rats WISTAR mâles dont le poids varie de 150 à 175 g.
Pour effectuer ces essais, on provoque une hyperlipidémie chez les animaux, au moyen du produit commercialisé par la Société ROHM and HAAS sous le nom de TRITON® W. R.
On observe, sur cette hyperlipidémie, les effets obtenus par administration des substances actives selon l'invention.
Les essais sont réalisés comme suit : • les rats sont mis à jeûner pendant 18 heures, puis on administre le TRITON® W.R. par voie intraveineuse en solution aqueuse à 10 % à raison de 200 mg/kg ;
6 heures et/ou 24 heures plus tard, on effectue les dosages sur le sang de façon traditionnelle.
Dans la première colonne, on a indiqué le numéro du composé testé.
Dans la deuxième colonne, on a indiqué le nombre d'animaux qui ont été soumis au test.
Dans les quatre dernières colonnes, on a indiqué les résultats relatifs respectivement : • aux lipides totaux, • aux triglycérides, • au cholestérol total, • au cholestérol estérifié.
Dans chacune de ces colonnes, on indique : • a) le pourcentage de diminution par rapport au témoin TRITON; • b) le score par rapport au clofibrate de référence, c'est-à-dire le rapport de l'intensité de l'activité du produit testé vis-à-vis de celle,de l'activité au clofibrate comptée pour 1.

[2] = tested on: animaux ayant reçu pendant une durée prolongée un régime athéromateux; assay: Atheromatous diet test (cholesterol/cholic acid diet + vitamin D2): biochemical, macroscopic and microscopic examinations; assay type: in vivo, rats WISTAR femelles
Text: Dans une deuxième série expérimentale, on a testé l'activité de certains produits de l'invention sur des animaux ayant reçu pendant une durée prolongée un régime athéromateux.
L'essai s'effectue sur des rats WISTAR femelles, d'un poids d'environ 160-180 g.
Les animaux reçoivent une alimentation provenant de l'usine d'alimentation nationale de Villemois- son-Sur-Orge, France, et désignée sous la référence UAR A03, enrichie en cholestérol (0,5 %) et en acide cholique (0,5 %).
Après 15 jours de régime athéromateux et tout en maintenant les animaux sous régime athéromateux, on leur administre par voie orale pendant 4 jours 250 000 ui/kg de vitamine D2 commercialisée sous le nom de Stérogyl 25H, en solution dans de l'huile d'olive.
On administre ensuite les produits à étudier pendant 4 semaines, dès la fin de l'administration de l'agent lésionnel.
La quantité de produit administrée aux animaux est de 100 mg/kg.
En fin d'étude, on effectue sur tous les animaux des examens biochimiques (cholestérol total, cholesterol high density lipoprotein (HDL) et cholesterol low density lipoprotein (LDL), et triglycérides).
En fin d'étude, tous les animaux encore vivants sont sacrifiés, et l'on prélève divers organes dont particulièrement l'aorte, pour l'étude histologique de cette dernière. Deux critères sont étudiés : le nombre de zones athéromateuses et l'intensité des lésions.
Le calcul des cotations s'effectue de la façon suivante : • en ce qui concerne l'intensité des lésions, on effectue une cotation allant de 0 pour l'absence de lésion à […] pour les lésions les plus fortes, et ceci pour chaque type d'altération considéré (augmentation des espaces interlamellalres, interruption des lames élastiques, épaississement des lames élastiques, dépôt de calcium, dépôt de mucopolysaccharides); puis on fait l'addition de la totalité des résultats par lot d'animaux; • en ce qui concerne le nombre de zones athéromateuses, par comptage de ces dernières et addition de la totalité des chiffres obtenus par lot d'animaux.
On calcule ensuite le pourcentage de diminution par rapport aux témoins régime et le score, c'est-à-dire le rapport de l'intensité de l'activité du produit testé vis-à-vis de celle de l'activité du clofibrate, compté pour 1.
Le tableau IV donne les résultats détaillés des examens biochimiques : • a) en % de diminution par rapport au témoin régime; • b) en score, par rapport au produit de référence, le clofibrate, ce dernier étant compté pour 1.
Le tableau V donne le résultat des examens macroscopiques : • a) en % de diminution des animaux atteints de lésions; • b) en score par rapport au clofibrate de référence, dont le score est compté pour 1.
Le tableau VI donne les résultats microscopiques avec cotation histologique concernant l'intensité des lésions, et le nombre de zones athéromateuses.

[3] = Acute oral toxicity (lethal dose); assay type: in vivo; conditions: mouse, in vivo, po, oral, read-out: DL50 (the source's name) (converted)
Text: (§1) La toxioité aiguë est exprimée par la dose létale 50, c'est-à-dire la dose létale entraînant la mort de 50 % des animaux.
(§2) Cette étude a été effectuée sur des souris mâles et femelles auxquelles on a administré les produits à tester par voie orale à des concentrations différentes et on a mesuré la létalité sur dix souris mâles et sur 10 souris femelles.

[4] = tested on: souris mâles et femelles; assay: Acute oral toxicity (lethal dose); assay type: in vivo; conditions: for DL0 / DL100: oral
Text: as §1, §2

[5] = 250 mg/kg oral, ratio to clofibrate of the same series
[6] = macroscopic examination, 100 mg/kg for 4 weeks
[7] = 250 mg/kg oral, given with TRITON W.R. 200 mg/kg i.v., read-out: Cholestérol estérifié % (pourcentage de diminution par rapport au témoin TRITON)
[8] = 250 mg/kg oral, given with TRITON W.R. 200 mg/kg i.v., read-out: Cholestérol total % (pourcentage de diminution par rapport au témoin TRITON)
[9] = 250 mg/kg oral, given with TRITON W.R. 200 mg/kg i.v., read-out: Triglycérides % (pourcentage de diminution par rapport au témoin TRITON)
[10] = read-out: Lipides totaux % (pourcentage de diminution par rapport au témoin TRITON), 250 mg/kg oral, given with TRITON W.R. 200 mg/kg i.v.

SMILES	Cholestérol estérifié Score (par rapport au clofibrate compté pour 1) [1, 5]	Cholestérol total Score (par rapport au clofibrate compté pour 1) [1, 5]	Lipides totaux Score (par rapport au clofibrate compté pour 1) [1, 5]	inhibition in vivo at 250 mg/kg [1, 7]	inhibition in vivo at 250 mg/kg [1, 8]	inhibition in vivo at 250 mg/kg [1, 9]	inhibition in vivo at 250 mg/kg [1, 10]	further results
CCOC(=O)C(C)(C)Oc1ccc(Cl)cc1 [Clofibrate]	1,00	1,00	1,00	–	–	–	–	Triglycérides Score (par rapport au clofibrate compté pour 1) [1, 5]: 1,00; CHOLESTEROL HDL Score (clofibrate compté pour 1) ([2]; 100 mg/kg for 4 weeks): 1,00; CHOLESTEROL LDL Score (clofibrate compté pour 1) ([2]; 100 mg/kg for 4 weeks): 1,00; CHOLESTEROL T Score (clofibrate compté pour 1) ([2]; 100 mg/kg for 4 weeks): 1,00; TRIGLYCERIDES Score (clofibrate compté pour 1) ([2]; 100 mg/kg for 4 weeks): 1,00; ANIMAUX ATTEINTS % [2, 6]: 81,82%; ANIMAUX ATTEINTS SCORE CLOFIBRATE [2, 6]: 1,00; NOMBRE DE ZONES ATHEROMATEUSES POUR 15 ANIMAUX Score Clofibrate ([2]; microscopic examination): 1,00; COTATION HISTOLOGIQUE Cotation ([2]; microscopic examination of the aorta, intensity of lesions, sum per group, 100 mg/kg for 4 weeks): 49,10; NOMBRE DE ZONES ATHEROMATEUSES POUR 15 ANIMAUX Cotation ([2]; microscopic examination of the aorta, 100 mg/kg for 4 weeks): 72,30; COTATION HISTOLOGIQUE Score Clofibrate ([2]; microscopic examination, intensity of lesions): 1,00
CCC(CO)NS(=O)(=O)c1cc(Cl)c([N+](=O)[O-])cc1OC (centres unmarked) [compound 316]	0,63	1,17	3,09	31.2%	11.1%	0%	42.6%	LD50 ([3]; Souris femelles): > 15000 mg/kg; LD50 ([3]; Souris mâles): 18500 mg/kg; DL0 ([4]; Souris femelles): ≥ 15 000 mg/kg; DL100 ([4]; Souris femelles): > 15 000 mg/kg; DL0 ([4]; Souris mâles): 15 000 mg/kg; DL100 ([4]; Souris mâles): > 20 000 mg/kg; toxicité par voie digestive ([4]; conclusion in words from all results): pratiquement dénué de toxicité par voie digestive
COc1ccc([N+](=O)[O-])cc1S(=O)(=O)N(C)CCO [compound 327]	–	–	0,53	0%	0%	9%	23.6%	–
COc1ccc(N)cc1S(=O)(=O)N(C)CCO [compound 328]	–	–	0,46	0%	0%	0%	20.7%	–
COc1cc([N+](=O)[O-])c(Cl)cc1S(=O)(=O)N(C)CCO [compound 329]	–	–	0,84	0%	0%	40%	37.6%	–
COc1cc(N)c(Cl)cc1S(=O)(=O)N(C)CCO [compound 330]	0,96	–	–	41.9%	0%	0%	–	–

— patent publication EP0081425B1, “Pharmaceutical compositions having normolipemic properties and containing compounds of the n-substituted benzenesulfonamide type” (priority 1981, dated 1983)
